The results in this text go back to patent US20240398757A1 (COCRYSTAL PHARMA, INC., priority 2022, published 2024).

In this experiment the target is T1, SARS2 protease (Severe acute respiratory syndrome coronavirus 2, UniProt P0DTD1).
T1 construct: SARS2 protease was added to a final concentration of 30 nM
Nature of the experiment: SARS-CoV-2 protease inhibition assay (SARS2 FRET protease assay). It is filed as biochemical. To be noted: IC50 (μM), SARS2 protease 30 nM, peptide substrate 1.3 μM, 120 minutes at 37° C., compounds 20 μM to 0.075 nM.

Take `CCNC(=O)C(=O)[C@H](C[C@@H]1CCNC1=O)NC(=O)[C@H](Cc1ccccc1)NC(=O)OC(C1CCCCC1)C(F)(F)c1cccc(Cl)c1` (stereo partly drawn) [Compound A255, 2-(3-Chlorophenyl)-1-cyclohexyl-2,2-difluoroethyl ((S)-1-(((S)-4-(ethylamino)-3,4-dioxo-1-((S)-2-oxopyrrolidin-3-yl)butan-2-yl)amino)-1-oxo-3-phenylpropan-2-yl)carbamate]: the IC50 (in general, the point on the concentration scale where inhibition reaches its midpoint) is 208 nM. The result for `CCCC[C@H](NC(=O)OC(c1ccncc1)C(F)(F)c1cccc(Cl)c1)C(=O)N[C@H](C=O)C[C@@H]1CCNC1=O` (stereo partly drawn) [Compound A256, 2-(3-Chlorophenyl)-2,2-difluoro-1-(pyridin-4-yl)ethyl ((S)-1-oxo-1-(((S)-1-oxo-3-((S)-2-oxopyrrolidin-3-yl)propan-2-yl)amino)hexan-2-yl)carbamate] reads 1 nM; that for `CCCC[C@H](NC(=O)OC(c1ccncc1)C(F)(F)c1cccc(Cl)c1)C(=O)N[C@@H](C[C@@H]1CCNC1=O)C(=O)C(=O)NC1CC1` (stereo partly drawn) [Compound A257, 2-(3-Chlorophenyl)-2,2-difluoro-1-(pyridin-4-yl)ethyl ((S)-1-(((S)-4-(cyclopropylamino)-3,4-dioxo-1-((S)-2-oxopyrrolidin-3-yl)butan-2-yl)amino)-1-oxohexan-2-yl)carbamate], 0.1 nM. In the case of `CCCC[C@H](NC(=O)CC(O)(Cc1cccc(Cl)c1)c1ccccc1)C(=O)N[C@@H](C[C@@H]1CCNC1=O)C(=O)C(=O)NCC` (stereo partly drawn) [Compound A259, (2S)-2-(4-(3-chlorophenyl)-3-hydroxy-3-phenylbutanamido)-N—((S)-4-(ethylamino)-3,4-dioxo-1-((S)-2-oxopyrrolidin-3-yl)butan-2-yl)hexanamide] it was 413 nM; in that of `CCCC[C@H](NC(=O)CC(O)(c1ccccc1)C(C)(C)c1cccc(Cl)c1)C(=O)N[C@H](C=O)C[C@@H]1CCNC1=O` (stereo partly drawn) [Compound A260, (2S)-2-(4-(3-chlorophenyl)-3-hydroxy-4-methyl-3-phenylpentanamido)-N—((S)-1-oxo-3-((S)-2-oxopyrrolidin-3-yl)propan-2-yl)hexanamide], 2 nM. The result for `CCCC[C@H](NC(=O)CC(O)(c1ccccc1)C(C)(C)c1cccc(Cl)c1)C(=O)N[C@@H](C[C@@H]1CCNC1=O)C(=O)C(=O)NCC` (stereo partly drawn) [Compound A261, (2S)-2-(4-(3-chlorophenyl)-3-hydroxy-4-methyl-3-phenylpentanamido)-N—((S)-4-(ethylamino)-3,4-dioxo-1-((S)-2-oxopyrrolidin-3-yl)butan-2-yl)hexanamide] reads 1090 nM; that for `O=C[C@H](C[C@@H]1CCNC1=O)NC(=O)[C@H](Cc1ccc(Cl)cc1)NC(=O)OC(c1ccccc1)C(F)(F)c1cccc(Cl)c1` (stereo partly drawn) [Compound A262, 2-(3-chlorophenyl)-2,2-difluoro-1-phenylethyl ((S)-3-(4-chlorophenyl)-1-oxo-1-(((S)-1-oxo-3-((S)-2-oxopyrrolidin-3-yl)propan-2-yl)amino)propan-2-yl)carbamate], 203 nM; that for `CCNC(=O)C(=O)[C@H](C[C@@H]1CCNC1=O)NC(=O)[C@H](Cc1ccc(Cl)cc1)NC(=O)OC(c1ccccc1)C(F)(F)c1cccc(Cl)c1` (stereo partly drawn) [Compound A263, 2-(3-chlorophenyl)-2,2-difluoro-1-phenylethyl ((S)-3-(4-chlorophenyl)-1-(((S)-4-(ethylamino)-3,4-dioxo-1-((S)-2-oxopyrrolidin-3-yl)butan-2-yl)amino)-1-oxopropan-2-yl)carbamate], 7020 nM. As for `CC(C)C(OC(=O)N[C@@H](Cc1ccccc1)C(=O)N[C@H](C=O)C[C@@H]1CCNC1=O)C(F)(F)c1cccc(Cl)c1` (stereo partly drawn) [Compound A266, 1-(3-Chlorophenyl)-1,1-difluoro-3-methylbutan-2-yl ((S)-1-oxo-1-(((S)-1-oxo-3-((S)-2-oxopyrrolidin-3-yl)propan-2-yl)amino)-3-phenylpropan-2-yl)carbamate], 0.1 nM corresponded to half-maximal inhibition (IC50). The result for `CCCC[C@H](NC(=O)O[C@@H](c1cccnc1)C(F)(F)c1cccc(Cl)c1)C(=O)N[C@H](C=O)C[C@@H]1CCNC1=O` [Compound A267, (S)-2-(3-chlorophenyl)-2,2-difluoro-1-(pyridin-3-yl)ethyl ((S)-1-oxo-1-(((S)-1-oxo-3-((S)-2-oxopyrrolidin-3-yl)propan-2-yl)amino)hexan-2-yl)carbamate] reads 9 nM; that for `CCCC[C@H](NC(=O)O[C@H](c1cccnc1)C(F)(F)c1cccc(Cl)c1)C(=O)N[C@H](C=O)C[C@@H]1CCNC1=O` [Compound A268, (R)-2-(3-chlorophenyl)-2,2-difluoro-1-(pyridin-3-yl)ethyl ((S)-1-oxo-1-(((S)-1-oxo-3-((S)-2-oxopyrrolidin-3-yl)propan-2-yl)amino)hexan-2-yl)carbamate], 0.08 nM. The result for `CCCC[C@H](NC(=O)OC(c1ccccc1)C(F)(F)c1cccc(Cl)c1)C(=O)N[C@@H](C[C@@H]1CCNC1=O)C(=O)c1nc2ccccc2o1` (stereo partly drawn) [Compound A269, 2-(3-chlorophenyl)-2,2-difluoro-1-phenylethyl ((S)-1-(((S)-1-(benzo[d]oxazol-2-yl)-1-oxo-3-((S)-2-oxopyrrolidin-3-yl)propan-2-yl)amino)-1-oxohexan-2-yl)carbamate] reads 418 nM; that for `CCCC[C@H](NC(=O)OC(c1ccccc1)C(F)(F)c1cccc(Cl)c1)C(=O)N[C@@H](C[C@@H]1CCNC1=O)C(=O)C(=O)NCCN(CC)CC` (some centres unmarked) [Compound A271], 936 nM. `CC(C)C[C@H](NC(=O)O[C@@H](C(C)C)C(F)(F)c1cccc(-c2ccccc2)c1)C(=O)N[C@H](C=O)C[C@@H]1CCNC1=O` [Compound A272, (S)-1-([1,1′-biphenyl]-3-yl)-1,1-difluoro-3-methylbutan-2-yl ((S)-4-methyl-1-oxo-1-(((S)-1-oxo-3-((S)-2-oxopyrrolidin-3-yl)propan-2-yl)amino)pentan-2-yl)carbamate] came in with a half-inhibitory concentration (IC50) of 1 nM. In the case of `CC(C)C[C@H](NC(=O)O[C@@H](c1ccccc1)C(F)(F)c1cccc(C(C)C)c1)C(=O)N[C@H](C=O)C[C@@H]1CCNC1=O` [Compound A275, (S)-2,2-difluoro-2-(3-isopropylphenyl)-1-phenylethyl ((S)-4-methyl-1-oxo-1-(((S)-1-oxo-3-((S)-2-oxopyrrolidin-3-yl)propan-2-yl)amino)pentan-2-yl)carbamate], the IC50 is 1 nM.

For `CCNC(=O)C(=O)[C@H](C[C@@H]1CCNC1=O)NC(=O)[C@H](Cc1ccccc1)NC(=O)OCCCc1ccccc1` [Compound A276, 3-Phenylpropyl ((S)-1-(((S)-4-(ethylamino)-3,4-dioxo-1-((S)-2-oxopyrrolidin-3-yl)butan-2-yl)amino)-1-oxo-3-phenylpropan-2-yl) carbamate], inhibition was half-maximal at 4150 nM (IC50).

The molecule `O=C[C@H](C[C@@H]1CCNC1=O)NC(=O)[C@H](Cc1ccccc1)NC(=O)OCCCc1ccccc1` [Compound A277, 3-Phenylpropyl ((S)-1-oxo-1-(((S)-1-oxo-3-((S)-2-oxopyrrolidin-3-yl)propan-2-yl)amino)-3-phenylpropan-2-yl) carbamate] returned an IC50 of 218 nM. In the case of `O=C(N[C@@H](CC1CCCCC1)C(=O)N[C@@H](C[C@@H]1CCNC1=O)C(=O)c1nc2ccccc2o1)OC(c1ccccc1)C(F)(F)c1cccc(Cl)c1` (stereo partly drawn) [Compound A278, 2-(3-chlorophenyl)-2,2-difluoro-1-phenylethyl ((S)-1-(((S)-1-(benzo[d]oxazol-2-yl)-1-oxo-3-((S)-2-oxopyrrolidin-3-yl)propan-2-yl)amino)-3-cyclohexyl-1-oxopropan-2-yl)carbamate] it was 249 nM; in that of `CC(C)(c1cccc(Cl)c1)C(OC(=O)N[C@@H](Cc1ccc(Cl)c(Cl)c1)C(=O)N[C@H](C=O)C[C@@H]1CCNC1=O)c1ccccc1` (stereo partly drawn) [Compound A279, 2-(3-chlorophenyl)-2-methyl-1-phenylpropyl ((S)-3-(3,4-dichlorophenyl)-1-oxo-1-(((S)-1-oxo-3-((S)-2-oxopyrrolidin-3-yl)propan-2-yl)amino)propan-2-yl)carbamate], 423 nM. In the case of `CCNC(=O)C(=O)[C@H](C[C@@H]1CCNC1=O)NC(=O)[C@H](Cc1ccc(Cl)c(Cl)c1)NC(=O)OC(c1ccccc1)C(C)(C)c1cccc(Cl)c1` (stereo partly drawn) [Compound A280, 2-(3-chlorophenyl)-2-methyl-1-phenylpropyl ((S)-3-(3,4-dichlorophenyl)-1-(((S)-4-(ethylamino)-3,4-dioxo-1-((S)-2-oxopyrrolidin-3-yl)butan-2-yl)amino)-1-oxopropan-2-yl)carbamate] it was 4500 nM; in that of `CCC1(C[C@H](NC(=O)OC(c2ccccc2)C(F)(F)c2cccc(Cl)c2)C(=O)N[C@@H](C[C@@H]2CCNC2=O)C(=O)C(=O)NC2CC2)CC1` (stereo partly drawn) [Compound A281, 2-(3-chlorophenyl)-2,2-difluoro-1-phenylethyl ((S)-1-(((S)-4-(cyclopropylamino)-3,4-dioxo-1-((S)-2-oxopyrrolidin-3-yl)butan-2-yl)amino)-3-(1-ethylcyclopropyl)-1-oxopropan-2-yl)carbamate], 1 nM; in that of `CC(C)C[C@H](NC(=O)O[C@@H](c1ccccc1)C(F)(F)c1cccc(Cl)c1)C(=O)N[C@@H](C[C@@H]1CCNC1=O)C(=O)C(N)=O` [Compound A282, (S)-2-(3-chlorophenyl)-2,2-difluoro-1-phenylethyl ((S)-1-(((S)-4-amino-3,4-dioxo-1-((S)-2-oxopyrrolidin-3-yl)butan-2-yl)amino)-4-methyl-1-oxopentan-2-yl)carbamate], 1 nM. For `CCCC[C@H](NC(=O)O[C@@H](c1ccccc1)C(F)(F)c1cccc(F)c1)C(=O)N[C@@H](C[C@@H]1CCNC1=O)C(=O)C(=O)NCC` [Compound A283, (S)-2,2-difluoro-2-(3-fluorophenyl)-1-phenylethyl ((S)-1-(((S)-4-(ethylamino)-3,4-dioxo-1-((S)-2-oxopyrrolidin-3-yl)butan-2-yl)amino)-1-oxohexan-2-yl)carbamate], 122 nM corresponded to half-maximal inhibition (IC50).
